Legend:
[1] = 101 kPa, Liquid; for speed of sound: Sing-around technique in a fixed-path interferometer; for mass density: Vibrating tube method
[2] = xn = mol fraction of the nth substance listed; conditions: 101 kPa, Liquid, x1 = 1; for speed of sound: Sing-around technique in a fixed-path interferometer; for mass density: Vibrating tube method

CC(C)(N)CO [2-amino-2-methylpropan-1-ol]
[1]
Conditions | mass density [kg/m3] | speed of sound [m/s]
293.15 K | 936.751 | 1501.4
298.15 K | 932.596 | 1483.4
303.15 K | 928.395 | 1461.2
308.15 K | 924.174 | 1442.4
313.15 K | 919.945 | 1423.8
318.15 K | 915.702 | 1405.3
323.15 K | 911.431 | 1386.9

NCCO [2-aminoethan-1-ol]
[1]
Conditions | mass density [kg/m3] | speed of sound [m/s]
293.15 K | 1015.98 | 1735.5
298.15 K | 1012.02 | 1719.2
303.15 K | 1008 | 1703.1
308.15 K | 1004.02 | 1686.8
313.15 K | 1000.04 | 1670.5
318.15 K | 996.029 | 1654.2
323.15 K | 992.014 | 1637.9

NCCO [2-aminoethan-1-ol] + CC(C)(N)CO
[2]
Conditions | mass density [kg/m3] | speed of sound [m/s]
293.15 K | 1015.98 | 1735.5
298.15 K | 1012.02 | 1719.2
303.15 K | 1008 | 1703.1
308.15 K | 1004.02 | 1686.8
313.15 K | 1000.04 | 1670.5
318.15 K | 996.029 | 1654.2
323.15 K | 992.014 | 1637.9

NCCO [2-aminoethan-1-ol] + CN(CCO)CCO
[2]
Conditions | mass density [kg/m3] | speed of sound [m/s]
293.15 K | 1015.98 | 1735.5
298.15 K | 1012.02 | 1719.2
303.15 K | 1008 | 1703.1
308.15 K | 1004.02 | 1686.8
313.15 K | 1000.04 | 1670.5
318.15 K | 996.029 | 1654.2
323.15 K | 992.014 | 1637.9

NCCO [2-aminoethan-1-ol] + OCCN(CCO)CCO
[2]
Conditions | mass density [kg/m3] | speed of sound [m/s]
298.15 K | 1012.02 | 1719.2
303.15 K | 1008 | 1703.1
308.15 K | 1004.02 | 1686.8
313.15 K | 1000.04 | 1670.5
318.15 K | 996.029 | 1654.2
323.15 K | 992.014 | 1637.9

CN(CCO)CCO [N-methyldiethanolamine]
[1]
Conditions | mass density [kg/m3] | speed of sound [m/s]
293.15 K | 1042.2 | 1585.5
298.15 K | 1038.29 | 1570.1
303.15 K | 1034.36 | 1554.8
308.15 K | 1030.43 | 1539.5
313.15 K | 1026.48 | 1524.2
318.15 K | 1022.53 | 1508.8
323.15 K | 1018.58 | 1493.4

OCCN(CCO)CCO [triethanolamine]
[1]
Conditions | mass density [kg/m3] | speed of sound [m/s]
298.15 K | 1120.82 | 1610.5
303.15 K | 1118.06 | 1600.5
308.15 K | 1115.26 | 1595.5
313.15 K | 1112.4 | 1587
318.15 K | 1109.6 | 1578.8
323.15 K | 1106.78 | 1570.6
